The subject of data set [1] is S. maltophilia VUN 10,010. Briefly: Degradation of single high molecular weight PAHs by high initial populations of VUN 10,010 with surfactant. The data set is classed as cell-based, Stenotrophomonas maltophilia. The procedure:
[…] Incubations contained a single PAH in BSM at 30° C. The PAH remaining was calculated as a percentage relative to the PAH recovered from the […]. Averages for the test cultures are from triplicate experiments.
Tergitol NP-10 (5 and 10 g l^−1) was added to BSM broths each containing a single high molecular weight PAH.

Data set [2] concerns Bacterial consortium VUN 10,009. Briefly: Degradation of high molecular weight PAHs by axenic cultures. Format: cell-based. The procedure:
(§1) PAH concentrations in the DCM extracts were measured on a Varian Star 3400 gas chromatograph, equipped with a flame ionization detector, using a BPX-5 capillary column (25 m×0.22 mm). The nitrogen carrier flow rate was 0.8 ml min^−1 with a pressure of 20 psi under split conditions (95:1). The oven temperature was programmed at 200° C. for 1 min, followed by a linear increase of 10° C. min^−1 to 320° C.; this temperature was held for 15 min. Injector and detector temperatures were maintained at 300° C. The peak areas of both internal standard and PAH were used to calculate peak area ratios. Ratios obtained for each sample, as well as controls, were compared to those of PAH standards.
(§2) PAH degradation experiments using axenic bacterial and fungal cultures, and fungal-bacterial co-culture, were performed in 30 ml reaction vials containing 10 ml of medium. Before inoculation, 0.1 ml of PAH stock solution (either single PAH or mixed PAH stock as described above) was introduced into the medium. This medium was then inoculated with microorganisms to produce either axenic cultures or co-cultures. Axenic cultures were inoculated with either bacteria (1 ml) to provide an initial cell population of approximately 10^4 cells ml^−1, or with mycelial pellets (0.25 g wet weight) in 10 ml of BSM. For the co-culture experiments, BSM (10 ml) contained bacteria (10^4 cells ml^−1) and 0.25 g wet weight of mycelial pellets. Experiments to investigate of co-metabolic PAH degradation by P. janthinellum were conducted with the PAH in BSM supplemented with glucose (1% final concentration) or MYPD medium. […] Medium (10 ml) was inoculated with fungal or bacterial culture using the same inoculum size as described above. All cultures were aseptically flushed with filtered (0.22 μm) air (0.2 litres min^−1) for 5 seconds on the day of inoculation and every 7 days thereafter. Abiotic controls were sterile medium containing only PAH(s). Killed-cell controls were the PAH-containing medium inoculated with a killed microbial population. The experimental cultures were conducted in triplicate, and all controls were run in duplicate. All cultures were incubated in the dark at 30° C./175 rpm. At designated time intervals the entire culture (10 ml) was sacrificed for the PAH-extraction procedure and biomass determinations.

The subject of a further data set is VUN 10,010. Described as above. The data set is classed as cell-based, Stenotrophomonas maltophilia. Here is the method: as §1, §2
Data set [3] deals with S. maltophilia VUN 10,010. Briefly: Degradation of a PAH mixture by VUN 10,010 with surfactant, low initial cell population. The data set is classed as cell-based, Stenotrophomonas maltophilia. To be noted: for Maximum Specific Degradation Rate: — = not appreciable. The procedure: The incubations were conducted in BSM at 30° C., using low initial cell populations. The PAH remaining was calculated as a percentage relative to the PAH recovered from the uninoculated control. Averages for the test cultures are from triplicate experiments.
A low initial cell population of around 9×10^3 cells ml^−1 was used.

Data set [4] deals with P. janthinellum VUO 10,201. Briefly: Degradation of high molecular weight PAHs by axenic cultures. Format: cell-based, Penicillium janthinellum. The procedure:
as §1, §2

Another data set in a line: physchem. The procedure: PAHs (approximately 1 g l^−1) were added to a 10 ml solution of BSM plus surfactant in a 30 ml glass reaction vial, which was sealed with an aluminium cap fitted with a septum. Surfactant concentrations corresponded to levels above, below, and at the CMC, and replicates were set up to allow sampling in duplicate at different time intervals up to 72 h. Incubation was performed at 30° C. and 175 rpm. The entire vial contents was collected by syringe and expressed through a preconditioned membrane filter (0.22 μm, Sartorius AG, Germany) to remove solid-phase crystalline PAH while allowing solubilized PAH in the aqueous phase and micellar pseudophase to pass into sterile vials. The filter was preconditioned by purging the filter with a few mls of sample solution to allow sorption saturation of the internal surfaces of the syringe, filter and needle. The filtrates were extracted with dichloromethane (DCM), and the concentration of solubilized PAH was determined by GC-FID as described below.
The effectiveness of a particular surfactant in solubilizing a given PAH can be assessed by determining the molar solubilization ratio (MSR) and micelle/water partition coefficient (Km). In our study, the concentrations of added PAHs were well in excess of aqueous saturation concentrations; therefore the MSR value of each compound can be obtained from the slope of the curve generated from a plot of PAH concentration versus surfactant concentration for surfactant concentrations above CMC (Edwards et al, 1991).
Km values can be determined from the measured MSR values according to the following equation (Edwards et al, 1991): [formula]
^SPAH, CMC is the apparent solubility of the PAH (mol l^−1) at surfactant CMC. VW is the molar volume of water at 30° C. ie. 0.018015 l mol^−1(Rogers and Mayhew, 1981).

[5] abbreviates: Tergitol NP-10 5 g l^−1, Single PAH.
Setting [6] is: Tergitol NP-10 10 g l^−1, Single PAH.
Where [7] appears, read: BSM + PYR (pyrene 250 mg l^−1), 28 day samples.
The mark [8] stands for this setting: Tergitol NP-10 5 g l^−1, Mixed PAH.
The mark [9] stands for this setting: 30 °C, aqueous with cosolvent or surfactant or cyclodextrin, thermodynamic from solid.

The record followed here is patent US20040023362A1, “Degradation of polycyclic aromatic hydrocarbons by microorganisms” (priority 2000, published 2004).

Each structure is given as a SMILES string. Converted amounts (≈) assume the structure as drawn.

For orientation: solubility means the concentration that dissolves in the medium under given conditions.

As to `c1ccc2cc3c(ccc4ccccc43)cc2c1` [Benz[a]anthracene, benz[a]anthracene], the “Maximum Specific Degradation Rate” value in data set [1] (Brij 35 5 g l^−1, Single PAH) was 7.18 mg PAH degraded mg^−1 protein day^−1; in data set [1] (Brij 35 10 g l^−1, Single PAH), 7.37 mg PAH degraded mg^−1 protein day^−1; in data set [1] (No Surfactant, Single PAH), 4.41 mg PAH degraded mg^−1 protein day^−1; in data set [1] (setting [5]) it was 9.66 mg PAH degraded mg^−1 protein day^−1; in data set [1] (setting [6]) it was 11.14 mg PAH degraded mg^−1 protein day^−1; in data set [3] (No Surfactant, Mixed PAH), 1.71 mg PAH degraded mg^−1 protein day^−1. Moreover, the “Maximum Specific Degradation Rate” value in data set [3] (setting [8]) was 3.25 mg PAH degraded mg^−1 protein day^−1. Also, the “percentage change in maximum specific degradation rate due to surfactant addition” value (from here on “percentage change”) is “+63%” in data set [1] (Brij 35 5 g l^−1, Single PAH); “+67%” in data set [1] (Brij 35 10 g l^−1, Single PAH); “+119%” in data set [1] (setting [5]); “+153%” in data set [1] (setting [6]); “+90%” in data set [3] (setting [8]). For the same compound, the “PAH removal (%)” value in data set [2] (setting [7]) is 9.6 + 0.7%; in data set [2] (BSM, 56 day samples) it was 7.8 ± 0.3%; with VUN 10,010 (setting [7]), 19.84 + 0.3%; in the data set with VUN 10,010 (BSM, 56 day samples), 8.2 ± 1.6%; in data set [4] (BSM, 56 day samples), 9.1 ± 1.4%; in data set [4] (BSM^g, 28 day samples), 18.1 ± 2.3%. Further, in data set [4] (MYPD, 28 day samples), the “PAH removal (%)” value turned out to be 23.1 ± 1.2%.

Regarding `c1ccc2c(c1)cc1ccc3cccc4ccc2c1c34` [Benzo[a]pyrene, benzo[a]pyrene], the “Maximum Specific Degradation Rate” value in data set [1] (Brij 35 5 g l^−1, Single PAH) is on record as 5.84 mg PAH degraded mg^−1 protein day^−1; in data set [1] (Brij 35 10 g l^−1, Single PAH) it was 5.47 mg PAH degraded mg^−1 protein day^−1; in data set [1] (No Surfactant, Single PAH) it was 6.21 mg PAH degraded mg^−1 protein day^−1; in data set [1] (setting [5]), 6.73 mg PAH degraded mg^−1 protein day^−1; in data set [1] (setting [6]), 7.90 mg PAH degraded mg^−1 protein day^−1; in data set [3] (No Surfactant, Mixed PAH), 1.43 mg PAH degraded mg^−1 protein day^−1. Also, in data set [3] (setting [8]), the “Maximum Specific Degradation Rate” value is on record as 4.30 mg PAH degraded mg^−1 protein day^−1. Also, the “percentage change” value in data set [1] (Brij 35 5 g l^−1, Single PAH) was −6%; in data set [1] (Brij 35 10 g l^−1, Single PAH) it was −12%; in data set [1] (setting [5]) it was “+8%”; in data set [1] (setting [6]), 27%; in data set [3] (setting [8]), “+201%”. For the same compound, the “PAH removal (%)” value was 23.3 + 0.5% in data set [2] (setting [7]); 6.7 ± 0.9% in data set [2] (BSM, 56 day samples); 32.2 + 1.2% in the data set with VUN 10,010 (setting [7]); 12.3 ± 1.0% in the data set with VUN 10,010 (BSM, 56 day samples); 16.9 ± 0.2% in data set [4] (BSM, 56 day samples); 56.5 ± 2.4% in data set [4] (BSM^g, 28 day samples). Further, the “PAH removal (%)” value in data set [4] (MYPD, 28 day samples) is listed as 72.2 ± 3.2%. In addition, the solubility is about 0.0159 µM (≈ 0.00401 µg/mL) in “physchem” (30° C.) and 160 to 180 µM (≈ 40.4 to 45.4 µg/mL) in the data set “physchem” (setting [9]).

As for `c1ccc2c(c1)ccc1c3ccccc3ccc21` [Chrysene, chrysene], the “Maximum Specific Degradation Rate” value is listed as 7.35 mg PAH degraded mg^−1 protein day^−1 in data set [1] (Brij 35 5 g l^−1, Single PAH); 7.93 mg PAH degraded mg^−1 protein day^−1 in data set [1] (Brij 35 10 g l^−1, Single PAH); 4.49 mg PAH degraded mg^−1 protein day^−1 in data set [1] (No Surfactant, Single PAH); 6.44 mg PAH degraded mg^−1 protein day^−1 in data set [1] (setting [5]); 4.16 mg PAH degraded mg^−1 protein day^−1 in data set [1] (setting [6]); 1.42 mg PAH degraded mg^−1 protein day^−1 in data set [3] (No Surfactant, Mixed PAH). In data set [3] (setting [8]), the “Maximum Specific Degradation Rate” value is 2.76 mg PAH degraded mg^−1 protein day^−1. Also, the “percentage change” value in data set [1] (Brij 35 5 g l^−1, Single PAH) is listed as “+64%”; in data set [1] (Brij 35 10 g l^−1, Single PAH), “+77%”; in data set [1] (setting [5]), “+43%”; in data set [1] (setting [6]) it was −7%; in data set [3] (setting [8]), “+94%”. The “PAH degradation rate in the presence of surfactants” value in data set [1] (Tergitol NP-10 5 and 10 g l^−1, high initial cell population) is recorded as “did not show improved PAH degradation rate”. The “PAH removal (%)” value in data set [2] (setting [7]) is 12.1 + 0.4%; in data set [2] (BSM, 56 day samples), 8.2 ± 0.5%; with VUN 10,010 (setting [7]), 28.3 + 1.2%; in the data set with VUN 10,010 (BSM, 56 day samples), 9.1 ± 1.2%; in data set [4] (BSM, 56 day samples), 12.2 ± 0.4%; in data set [4] (BSM^g, 28 day samples), 25.6 ± 1.9%. Further, in data set [4] (MYPD, 28 day samples), the “PAH removal (%)” value worked out at 31.7 ± 3.7%.

In the case of `c1ccc2c(c1)-c1cccc3cccc-2c13` [Fluoranthene, fluoranthene], the “Maximum Specific Degradation Rate” value is given as 3.71 mg PAH degraded mg^−1 protein day^−1 in data set [1] (Brij 35 5 g l^−1, Single PAH); 12.11 mg PAH degraded mg^−1 protein day^−1 in data set [1] (Brij 35 10 g l^−1, Single PAH); 2.90 mg PAH degraded mg^−1 protein day^−1 in data set [1] (No Surfactant, Single PAH); 4.54 mg PAH degraded mg^−1 protein day^−1 in data set [1] (setting [5]); 4.59 mg PAH degraded mg^−1 protein day^−1 in data set [1] (setting [6]); 1.02 mg PAH degraded mg^−1 protein day^−1 in data set [3] (No Surfactant, Mixed PAH). Besides, the “Maximum Specific Degradation Rate” value in data set [3] (setting [8]) is given as 1.11 mg PAH degraded mg^−1 protein day^−1. For the same compound, the “percentage change” value in data set [1] (Brij 35 5 g l^−1, Single PAH) is “+28%”; in data set [1] (Brij 35 10 g l^−1, Single PAH), “+318%”; in data set [1] (setting [5]) it was “+57%”; in data set [1] (setting [6]), “+58%”; in data set [3] (setting [8]), “+9%”. Further, the solubility is about 1.37 µM (≈ 0.277 µg/mL) in the data set “physchem” (30° C.) and 730 to 810 µM (≈ 148 to 164 µg/mL) in “physchem” (setting [9]).

Consider `c1cc2ccc3cccc4ccc(c1)c2c34` [Pyrene, pyrene], for which the “PAH removal (%)” value in data set [2] (BSM, 56 day samples) turned out to be 100.0 ± 0.0%; in the data set on VUN 10,010 (BSM, 56 day samples) it was 100.0 ± 0.0%; in data set [4] (BSM, 56 day samples), 3.3 ± 0.3%; in data set [4] (BSM^g, 28 day samples) it was 80.3 ± 2.8%; in data set [4] (MYPD, 28 day samples), 93.6 ± 2.8%.
